Assays:
Acetylcholinesterase = Acetylcholinesterase (Homo sapiens, UniProt P22303); assay type: functional
Mu-type opioid receptor = Mu-type opioid receptor (Homo sapiens, UniProt P35372)
[1] = molecular target: T1, Prostaglandin G/H synthase 1 (Homo sapiens, UniProt P23219); assay type: functional
[2] = molecular target: T1, Prostaglandin G/H synthase 1; assay type: functional; remark: listed apart in the source
[3] = molecular target: Sodium-dependent dopamine transporter (Homo sapiens, UniProt Q01959)
[4] = molecular target: T2, Alpha-1A adrenergic receptor (Homo sapiens, UniProt P35348); assay type: functional, cell-based
T2 sequence (P35348 whole entry): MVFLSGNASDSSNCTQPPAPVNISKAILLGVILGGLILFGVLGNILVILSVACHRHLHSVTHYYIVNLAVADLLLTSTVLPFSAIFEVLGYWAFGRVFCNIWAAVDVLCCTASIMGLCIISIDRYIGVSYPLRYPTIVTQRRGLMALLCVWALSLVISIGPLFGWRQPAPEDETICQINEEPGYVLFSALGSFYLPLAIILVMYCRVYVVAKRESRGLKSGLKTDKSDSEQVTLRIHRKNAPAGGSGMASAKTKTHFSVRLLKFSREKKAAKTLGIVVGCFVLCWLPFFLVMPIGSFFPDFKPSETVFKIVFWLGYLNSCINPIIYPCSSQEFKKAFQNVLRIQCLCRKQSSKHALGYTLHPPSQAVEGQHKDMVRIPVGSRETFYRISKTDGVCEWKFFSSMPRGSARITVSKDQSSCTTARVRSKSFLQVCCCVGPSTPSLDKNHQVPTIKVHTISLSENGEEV

Thromboxane A2 receptor = molecular target: T3, Thromboxane A2 receptor (Homo sapiens, UniProt P21731); assay type: functional, cell-based
T3 sequence (P21731 whole entry): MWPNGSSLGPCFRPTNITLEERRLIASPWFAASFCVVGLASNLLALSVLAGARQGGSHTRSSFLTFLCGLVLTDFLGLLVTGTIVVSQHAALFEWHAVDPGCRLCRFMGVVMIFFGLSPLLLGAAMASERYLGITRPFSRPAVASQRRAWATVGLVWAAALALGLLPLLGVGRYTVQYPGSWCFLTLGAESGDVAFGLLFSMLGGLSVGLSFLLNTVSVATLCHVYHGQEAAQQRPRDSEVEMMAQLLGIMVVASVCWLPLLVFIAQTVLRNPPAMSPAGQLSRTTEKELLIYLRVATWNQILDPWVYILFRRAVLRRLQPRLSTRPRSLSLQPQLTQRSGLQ

Adenosine receptor A3 = molecular target: T4, Adenosine receptor A3 (Homo sapiens, UniProt P0DMS8)
T4 sequence (P0DMS8 whole entry): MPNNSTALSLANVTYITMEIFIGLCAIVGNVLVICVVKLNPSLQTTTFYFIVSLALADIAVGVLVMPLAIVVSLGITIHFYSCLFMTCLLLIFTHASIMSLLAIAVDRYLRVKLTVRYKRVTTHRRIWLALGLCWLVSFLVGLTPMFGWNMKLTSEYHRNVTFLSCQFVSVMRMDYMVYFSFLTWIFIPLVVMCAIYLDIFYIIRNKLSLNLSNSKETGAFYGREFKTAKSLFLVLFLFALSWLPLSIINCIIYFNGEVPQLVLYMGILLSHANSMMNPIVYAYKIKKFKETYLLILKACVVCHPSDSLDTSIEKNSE

Estrogen receptor = molecular target: T5, Estrogen receptor (Homo sapiens, UniProt P03372)
T5 sequence (P03372 whole entry): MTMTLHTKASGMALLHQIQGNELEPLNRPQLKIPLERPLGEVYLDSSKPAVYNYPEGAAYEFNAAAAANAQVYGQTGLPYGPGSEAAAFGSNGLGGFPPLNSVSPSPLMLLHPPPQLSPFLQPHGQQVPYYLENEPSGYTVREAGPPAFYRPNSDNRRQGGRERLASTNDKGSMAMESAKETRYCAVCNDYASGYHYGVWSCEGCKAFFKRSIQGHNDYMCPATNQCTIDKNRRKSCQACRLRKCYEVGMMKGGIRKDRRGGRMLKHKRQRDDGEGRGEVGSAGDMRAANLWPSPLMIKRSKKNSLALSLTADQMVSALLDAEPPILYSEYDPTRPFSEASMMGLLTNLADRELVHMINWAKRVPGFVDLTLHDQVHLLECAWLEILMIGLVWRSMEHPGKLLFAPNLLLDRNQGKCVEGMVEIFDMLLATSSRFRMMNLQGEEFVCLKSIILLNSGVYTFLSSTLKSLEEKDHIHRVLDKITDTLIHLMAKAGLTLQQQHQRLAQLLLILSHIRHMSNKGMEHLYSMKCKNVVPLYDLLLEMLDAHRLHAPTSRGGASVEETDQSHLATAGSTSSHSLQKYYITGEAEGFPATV

[5] = molecular target: T6, Muscarinic acetylcholine receptor M2 (Homo sapiens, UniProt P08172)
T6 sequence (P08172 whole entry): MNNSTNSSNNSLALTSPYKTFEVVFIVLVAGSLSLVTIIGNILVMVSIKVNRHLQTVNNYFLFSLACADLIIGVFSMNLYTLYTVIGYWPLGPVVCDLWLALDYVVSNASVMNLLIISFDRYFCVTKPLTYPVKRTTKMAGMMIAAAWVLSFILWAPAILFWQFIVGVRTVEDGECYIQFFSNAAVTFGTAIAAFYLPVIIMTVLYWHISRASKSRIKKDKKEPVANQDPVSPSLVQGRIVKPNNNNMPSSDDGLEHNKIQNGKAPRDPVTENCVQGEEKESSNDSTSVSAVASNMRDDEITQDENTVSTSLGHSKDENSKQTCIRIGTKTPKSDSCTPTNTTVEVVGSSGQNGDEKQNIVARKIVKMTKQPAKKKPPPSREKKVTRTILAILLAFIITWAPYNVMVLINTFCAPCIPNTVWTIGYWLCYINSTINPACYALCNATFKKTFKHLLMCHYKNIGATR
Note: assay procedure not described here.

T1 sequence (P23219 whole entry): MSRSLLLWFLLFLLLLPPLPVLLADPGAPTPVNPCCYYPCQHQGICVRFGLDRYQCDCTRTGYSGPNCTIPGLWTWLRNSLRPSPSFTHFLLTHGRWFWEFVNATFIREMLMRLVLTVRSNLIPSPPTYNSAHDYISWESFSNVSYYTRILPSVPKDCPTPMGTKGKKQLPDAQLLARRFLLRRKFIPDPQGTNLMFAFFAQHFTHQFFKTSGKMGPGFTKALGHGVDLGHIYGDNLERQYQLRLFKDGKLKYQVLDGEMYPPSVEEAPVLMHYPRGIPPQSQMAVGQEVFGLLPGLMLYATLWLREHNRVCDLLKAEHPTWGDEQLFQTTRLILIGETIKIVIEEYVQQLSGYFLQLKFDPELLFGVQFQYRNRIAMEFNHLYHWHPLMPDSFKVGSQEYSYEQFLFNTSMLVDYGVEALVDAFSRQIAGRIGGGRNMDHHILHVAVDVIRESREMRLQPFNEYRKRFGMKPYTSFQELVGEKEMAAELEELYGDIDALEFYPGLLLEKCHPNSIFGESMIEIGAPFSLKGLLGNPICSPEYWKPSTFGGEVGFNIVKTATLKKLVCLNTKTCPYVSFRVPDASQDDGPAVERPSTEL
Sodium-dependent dopamine transporter, sequence (Q01959 whole entry): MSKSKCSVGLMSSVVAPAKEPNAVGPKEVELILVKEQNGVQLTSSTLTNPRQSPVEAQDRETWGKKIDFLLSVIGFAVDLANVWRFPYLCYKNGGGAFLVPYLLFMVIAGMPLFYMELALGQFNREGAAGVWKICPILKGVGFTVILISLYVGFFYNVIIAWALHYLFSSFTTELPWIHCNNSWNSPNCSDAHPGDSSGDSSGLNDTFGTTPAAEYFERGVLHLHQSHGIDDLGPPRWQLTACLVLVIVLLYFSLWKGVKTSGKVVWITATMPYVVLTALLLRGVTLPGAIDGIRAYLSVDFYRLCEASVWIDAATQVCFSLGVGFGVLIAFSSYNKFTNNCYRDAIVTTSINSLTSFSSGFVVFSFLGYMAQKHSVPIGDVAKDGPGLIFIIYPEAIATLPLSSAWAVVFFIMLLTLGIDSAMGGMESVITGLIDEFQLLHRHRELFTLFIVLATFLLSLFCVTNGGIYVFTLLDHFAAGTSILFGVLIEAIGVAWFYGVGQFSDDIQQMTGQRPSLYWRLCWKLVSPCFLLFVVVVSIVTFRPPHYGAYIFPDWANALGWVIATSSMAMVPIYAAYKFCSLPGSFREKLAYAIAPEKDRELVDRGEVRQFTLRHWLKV
Acetylcholinesterase, sequence (P22303 whole entry): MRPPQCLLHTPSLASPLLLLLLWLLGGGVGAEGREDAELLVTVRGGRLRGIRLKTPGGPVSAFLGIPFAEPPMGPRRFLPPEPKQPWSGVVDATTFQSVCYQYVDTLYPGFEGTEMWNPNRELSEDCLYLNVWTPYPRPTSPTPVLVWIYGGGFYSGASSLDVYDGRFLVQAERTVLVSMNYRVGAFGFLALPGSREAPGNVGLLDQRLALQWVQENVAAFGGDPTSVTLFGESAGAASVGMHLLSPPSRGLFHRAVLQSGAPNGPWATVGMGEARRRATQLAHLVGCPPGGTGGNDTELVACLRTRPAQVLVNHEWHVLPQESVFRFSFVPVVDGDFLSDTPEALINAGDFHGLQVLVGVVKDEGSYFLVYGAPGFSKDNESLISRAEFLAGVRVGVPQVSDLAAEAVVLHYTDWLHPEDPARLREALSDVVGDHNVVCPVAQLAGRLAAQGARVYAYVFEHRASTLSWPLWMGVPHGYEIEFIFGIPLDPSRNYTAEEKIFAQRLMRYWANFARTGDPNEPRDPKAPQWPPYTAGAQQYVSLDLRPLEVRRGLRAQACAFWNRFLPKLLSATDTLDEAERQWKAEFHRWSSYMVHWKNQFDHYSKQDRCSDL
Mu-type opioid receptor, sequence (P35372 whole entry): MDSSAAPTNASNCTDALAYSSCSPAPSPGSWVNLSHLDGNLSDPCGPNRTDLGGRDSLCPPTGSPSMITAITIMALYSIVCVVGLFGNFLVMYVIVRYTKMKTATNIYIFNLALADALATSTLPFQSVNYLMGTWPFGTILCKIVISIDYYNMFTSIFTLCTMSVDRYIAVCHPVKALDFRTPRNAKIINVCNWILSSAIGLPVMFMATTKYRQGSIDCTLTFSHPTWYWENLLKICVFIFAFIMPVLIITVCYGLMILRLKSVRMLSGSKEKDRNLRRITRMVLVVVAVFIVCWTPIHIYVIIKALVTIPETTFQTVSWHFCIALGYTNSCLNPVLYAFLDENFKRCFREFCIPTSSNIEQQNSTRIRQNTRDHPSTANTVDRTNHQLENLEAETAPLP

SMILES | AC50 (Acetylcholinesterase) [µM] | AC50 (Mu-type opioid receptor) [µM] | AC50 [1] [µM] | AC50 [2] [µM] | AC50 [3] [µM] | AC50 [4] [µM] | AC50 (Thromboxane A2 receptor) [µM] | AC50 (Adenosine receptor A3) [µM] | AC50 (Estrogen receptor) [µM] | AC50 [5] [µM]
N=C1CCCN1Cc1[nH]c(=O)[nH]c(=O)c1Cl | > 30 | > 30 | > 30 | > 30 | > 30 | > 30 | > 30 | > 30 | > 30 | > 30
CC(C)(C)C(=O)OCOC(=O)[C@@H]1N2C(=O)[C@@H](NC(=O)[C@H](N)c3ccccc3)[C@H]2SC1(C)C [PIVAMPICILLIN] | > 30 | > 30 | 7.48 | > 30 | > 30 | > 30 | > 30 | > 30 | > 30 | > 30
COc1ccc(C(=O)Nc2ccccc2CCC2CCCCN2C)cc1 (stereo not given) [ENCAINIDE] | > 30 | > 30 | > 30 | > 30 | > 30 | > 30 | > 30 | > 30 | > 30 | > 30
CC[C@]1(O)C[C@H]2CN(CCc3c([nH]c4ccccc34)[C@@](C(=O)OC)(c3cc4c(cc3OC)N(C=O)[C@H]3[C@@](O)(C(=O)OC)[C@H](OC(C)=O)[C@]5(CC)C=CCN6CC[C@]43[C@@H]65)C2)C1 [VINCRISTINE] | > 30 | > 30 | 11.2 | 5.73 | > 30 | > 30 | > 30 | > 30 | > 30 | > 30
NC1CCN(c2c(F)cc3c(=O)c(C(=O)O)cn(C4CC4)c3c2Cl)C1 (stereo not given) [CLINAFLOXACIN] | > 30 | 4.91 | > 30 | > 30 | > 30 | > 30 | > 30 | > 30 | > 30 | 5.08
CCN(CC)CCc1nc(-c2ccccc2)no1 [OXOLAMINE] | > 30 | > 30 | > 30 | > 30 | > 30 | > 30 | > 30 | > 30 | > 30 | > 30
CCOc1ccc(Cc2cc([C@@H]3O[C@H](CO)[C@@H](O)[C@H](O)[C@H]3O)ccc2Cl)cc1 [DAPAGLIFLOZIN] | > 30 | > 30 | > 30 | > 30 | > 30 | > 30 | > 30 | > 30 | > 30 | > 30
CC(C)(C)CC(C)(C)c1ccc(O)c(Cc2ccc(Cl)cc2Cl)c1 [CLOFOCTOL] | > 30 | 22 | 2.56 | 29.2 | 3.54 | > 30 | > 30 | 1.12 | 8.45 | > 10
CCC(C)(C)c1ccc(CC(C)CN2C[C@@H](C)O[C@@H](C)C2)cc1 (stereo not given in full) [AMOROLFINE] | > 30 | > 30 | > 30 | > 30 | > 30 | > 30 | > 30 | 12.1 | > 30 | > 30
CCOC(=O)/C=C1\SC(N2CCCCC2)C(=O)N1C (stereo not given) [ETOZOLIN] | > 30 | > 30 | > 30 | > 30 | > 30 | > 30 | > 30 | > 30 | > 30 | > 30
N[C@H]1C(O)O[C@H](CO)[C@@H](O)[C@@H]1O (stereo not given in full) [GLUCOSAMINE] | > 30 | > 30 | > 30 | > 30 | > 30 | > 30 | > 30 | > 30 | > 30 | > 30

Reference: ChEMBL document CHEMBL5291721, “A preclinical secondary pharmacology resource illuminates target-adverse drug reaction associations of marketed drugs” (Nat Commun, 2023)
